Among the data in paper doi:10.1101/2020.04.13.040287v1 (biorxiv, 2020) are half-life and EC50 values, retold here.

Structures are written as SMILES. Where two headings read alike, the source gives them in different places.

The nature of data set [1]: in vitro. The conditions noted are these: human.
A short description of data set [2]: in vitro. The conditions noted are these: rat, plasma.
The nature of data set [3]: in vitro. The note with it: dog.
Data set [4] is described as follows: in vitro. The note with it: human, intestinal s9.
Data set [5] in a line: in vitro. The note with it: dog, intestinal s9.
For data set [6], the system named is DEN2. Put plainly: microbe, parasite or virus in culture. The note with it: Dengue virus, THP-1, read-out: THP-1 DEN2 assay (EC50).
In data set [7] the test system is DEN2. Put plainly: microbe, parasite or virus in culture. The note with it: Dengue virus, K562, read-out: K562 DEN2 assay (EC50).
The subject of data set [8] is DEN2. Put plainly: microbe, parasite or virus in culture. The conditions noted are these: Dengue virus, HEK-293T, read-out: 293T DEN2 assay (EC50).
Data set [9] is described as follows: in vitro. The note with it: human, plasma.
Data set [10] is described as follows: in vitro. The note with it: dog, plasma.
Where [11] appears, read: liver s9, Liver S9 T1/2 (min) human.
Where [12] appears, read: liver s9, Liver S9 T1/2 (min) dog.

In the case of `CCOc1nc(N)nc2c1ncn2[C@@H]1O[C@@H]2COP(=O)(OC(C)C)O[C@H]2[C@@]1(C)F` (some centres unmarked) [compound 4, PSI-352938], the half-life (usually the time in which the quantity being followed falls by half) in [1] (setting [11]) was more than 2 h.

In the case of `COc1nc(N)nc2c1ncn2[C@@H]1O[C@H](COP(=O)(N[C@@H](C)C(=O)OC(C)C)Oc2ccccc2)[C@@H](O)[C@@]1(C)F` (some centres unmarked) [compound 5, PSI-353661], the half-life in [2] was less than 0.0833 h; in [1] (liver s9), 0.3 h; in data set [3] (liver s9) it was 0.85 h; in data set [4] it was more than 2 h; in data set [5] it was 1.2 h.

`CCOc1nc(N)nc2c1ncn2C1OC2COP(=O)(NC(C)C(=O)OC(C)C)OC2C1(C)F` (centres unmarked) [compound 12, 12]: the half-life is less than 0.0833 h in data set [2] (Plasma T1/2 (min) rat) and 0.933 h in data set [3] (setting [12]).

Turning to `CCOc1nc(N)nc2c1ncn2C1OC2COP(=O)(NCC(=O)OC(C)C)OC2C1(C)F` (centres unmarked) [compound 16, 16], the values for the half-life in [2] (Plasma T1/2 (min) rat), in data set [1] (setting [11]) and in [3] (setting [12]) were less than 0.0833 h, 0.967 h and 1.52 h, respectively.

With `CCOC(=O)C(C)NP1(=O)OCC2OC(n3cnc4c(OCC)nc(N)nc43)C(C)(F)C2O1` (centres unmarked) [compound 17, 17], the half-maximal effective concentration (EC50) (as a rule, the concentration needed to bring the measured effect to its halfway point) is 460 ± 200 nM in data set [6], 2790 ± 220 nM in data set [7] and 3400 nM in data set [8].

Turning to `COC(=O)C(C)NP1(=O)OCC2OC(n3cnc4c(OC(C)C)nc(N)nc43)C(C)(F)C2O1` (centres unmarked) [compound 19, 19], the half-life was 1.88 h in data set [9], more than 2 h in data set [10] and less than 0.0833 h in data set [2] (Plasma T1/2 (min) rat).

Take `CCOC(=O)C(NP1(=O)OCC2OC(n3cnc4c(OCC)nc(N)nc43)C(C)(F)C2O1)C(C)C` (centres unmarked) [compound 20, 20]: the half-life in data set [2] (Plasma T1/2 (min) rat) amounted to 1.1 h; in data set [1] (setting [11]), 1.37 h; in data set [3] (setting [12]), 1.02 h.
